From the Kinase Knowledgebase extract (Sharma et al. 2016)

Biological target: PIK3CA (human) (UniProt P42336)
Assay: Assessment of PIK3CA Kinase Activity

Chain of PIK3CA (human) (P42336 whole entry, looked up): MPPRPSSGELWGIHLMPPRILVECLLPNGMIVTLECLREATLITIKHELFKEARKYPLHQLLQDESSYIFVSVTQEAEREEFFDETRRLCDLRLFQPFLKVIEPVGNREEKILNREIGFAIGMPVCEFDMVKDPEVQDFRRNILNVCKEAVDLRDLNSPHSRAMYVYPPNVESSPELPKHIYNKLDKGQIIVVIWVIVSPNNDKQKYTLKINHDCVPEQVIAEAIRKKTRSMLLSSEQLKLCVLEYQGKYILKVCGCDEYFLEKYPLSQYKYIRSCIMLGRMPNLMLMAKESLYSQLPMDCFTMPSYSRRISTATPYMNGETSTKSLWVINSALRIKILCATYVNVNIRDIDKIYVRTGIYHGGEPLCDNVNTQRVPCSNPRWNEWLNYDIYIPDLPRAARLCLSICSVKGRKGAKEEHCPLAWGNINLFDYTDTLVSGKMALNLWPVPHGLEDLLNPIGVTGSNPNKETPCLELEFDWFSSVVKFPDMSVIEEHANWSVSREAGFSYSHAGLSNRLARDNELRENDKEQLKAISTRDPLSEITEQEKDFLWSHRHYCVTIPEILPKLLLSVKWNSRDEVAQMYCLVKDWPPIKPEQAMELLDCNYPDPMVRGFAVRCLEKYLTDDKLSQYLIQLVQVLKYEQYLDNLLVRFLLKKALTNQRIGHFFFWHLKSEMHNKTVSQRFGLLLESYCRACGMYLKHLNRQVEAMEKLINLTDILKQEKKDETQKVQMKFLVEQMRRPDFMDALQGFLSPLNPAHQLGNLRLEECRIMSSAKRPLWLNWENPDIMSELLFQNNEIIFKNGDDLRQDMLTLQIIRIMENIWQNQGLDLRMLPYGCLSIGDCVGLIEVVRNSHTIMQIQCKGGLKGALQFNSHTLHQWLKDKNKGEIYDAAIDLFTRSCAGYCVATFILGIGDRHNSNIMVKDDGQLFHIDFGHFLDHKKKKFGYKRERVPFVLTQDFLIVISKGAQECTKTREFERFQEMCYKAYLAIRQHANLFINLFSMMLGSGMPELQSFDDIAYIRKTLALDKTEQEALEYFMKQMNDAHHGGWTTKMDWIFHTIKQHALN

SMILES	IC50 [nM]
COc1cc(-c2ccc3ncc(NC(=O)NC4CCN(C(=O)C(F)(F)F)CC4)nc3n2)ccc1O	< 1000
COc1cc(-c2ccc3ncc(NC(=O)NC4CCCC4)nc3n2)ccc1O	< 1000
CCNC(=O)Nc1ccc2ncc(-c3ccc(OC(C)=O)c(OC)c3)nc2n1	< 5000
CCNC(=O)Nc1ccc2ncc(-c3ccc(OC)c(O)c3)nc2n1	< 5000
CCNC(=O)Nc1ccc2ncc(Nc3ccc(O)c(C(=O)OC)c3)nc2n1	< 1000
CCNC(=S)Nc1ccc2ncc(Nc3ccc(OC)c(O)c3)nc2n1	< 1000
COc1cc(-c2ccc3ncc(NC(=O)NCCCl)nc3n2)ccc1O	< 1000
CNC(=S)Nc1cnc2ccc(-c3ccc(O)c(OC)c3)nc2n1	< 1000
CCNC(=O)Nc1cnc2ccc(-c3ccc(O)c(OC)c3)nc2n1	< 500
CCNC(=O)Nc1ccc2ncc(Nc3cccc(OC(F)F)c3)nc2n1	< 5000
CCNC(=O)Nc1ccc2ncc(Nc3ccccc3O)nc2n1	< 5000

Results, then the compound that gave them:

IC50 [nM]	SMILES
< 5000	CNC(=O)Nc1cnc2ccc(-c3ccc(OC)c(OC)c3)nc2n1
< 1000	O=C(Nc1cnc2ccc(-c3cc(Cl)c(O)c(Cl)c3)nc2n1)NC1CCCC1
< 5000	CCNC(=O)Nc1ccc2ncc(Nc3cccc(O)c3)nc2n1
< 1000	CCNC(=S)Nc1ccc2ncc(Nc3cc(OC)c(OC)c(OC)c3)nc2n1
< 1000	COc1cc(-c2ccc3ncc(NC(=O)Nc4cccs4)nc3n2)ccc1O
< 5000	CCNC(=O)Nc1cnc2ccc(-c3ccc(O)c(Cl)c3)nc2n1
< 1000	COc1cc(Nc2cnc3ccc(NC(=S)NC4CCCC4)nc3n2)cc(OC)c1OC
< 5000	CCNC(=O)Nc1cnc2ccc(-c3cc(C)c(O)c(C)c3)nc2n1
< 5000	CC(C)(C)NC(=O)Nc1cnc2ccc(-c3cc(Cl)c(O)c(Cl)c3)nc2n1
< 1000	COc1cc(-c2ccc3ncc(NC(=O)Nc4ccncc4)nc3n2)ccc1O
